Assay results as given in ChEMBL document CHEMBL1201862, “PubChem BioAssay data set” (2004).
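Each compound was tested at five concentrations against cells in 96-well plates for 48 hours. The concentration for 50% growth inhibition is given as GI50.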 Calls of active or inactive are those of the source. Rule as the data show it: active = GI50 up to about 1.1 µM and inactive = higher.

Experiments:
Assay in all cases: NCI anticancer screen, dose series, 48 h
NCI-H23 = test system: NCI-H23
Hs-578T = test system: Hs-578T
OVCAR-4 = test system: OVCAR-4
HOP-62 = test system: HOP-62
IGROV-1 = test system: IGROV-1
BT-549 = test system: BT-549
KM12 = test system: KM12
TK-10 = test system: TK-10
SW-620 = test system: SW-620
OVCAR-5 = test system: OVCAR-5
OVCAR-8 = test system: OVCAR-8
PC-3 = test system: PC-3
HL-60 = test system: HL-60
M14 = test system: M14
MDA-MB-435 = test system: MDA-MB-435
CCRF-CEM = test system: CCRF-CEM
ACHN = test system: ACHN
HCT-15 = test system: HCT-15
A498 = test system: A498

Compound | GI50 (NCI-H23) | GI50 (Hs-578T) | GI50 (OVCAR-4) | GI50 (HOP-62) | GI50 (IGROV-1) | GI50 (BT-549) | GI50 (KM12) | GI50 (TK-10) | GI50 (SW-620) | GI50 (OVCAR-5) | GI50 (OVCAR-8) | GI50 (PC-3) | GI50 (HL-60) | GI50 (M14) | GI50 (MDA-MB-435) | GI50 (CCRF-CEM) | GI50 (ACHN) | GI50 (HCT-15) [µM] | GI50 (A498)
CC(O)=C1C(=O)CCC1=O | > 100 µM (inactive) | > 100 µM (inactive) | > 100 µM (inactive) | > 100 µM (inactive) | > 100 µM (inactive) | > 100 µM (inactive) | > 100 µM (inactive) | > 100 µM (inactive) | > 100 µM (inactive) | > 100 µM (inactive) | > 100 µM (inactive) | > 100 µM (inactive) | > 100 µM (inactive) | > 100 µM (inactive) | > 100 µM (inactive) | > 100 µM (inactive) | > 100 µM (inactive) |  | 
CCOC(=O)C(NC(=O)CC)(Nc1ccccc1F)C(F)(F)F (stereo unspecified) | > 100 µM (inactive) | > 100 µM (inactive) | > 100 µM (inactive) |  | > 100 µM (inactive) | > 100 µM (inactive) | > 100 µM (inactive) | > 100 µM (inactive) | > 100 µM (inactive) | 58.1 µM (inactive) | > 100 µM (inactive) | > 100 µM (inactive) | > 100 µM (inactive) | > 100 µM (inactive) | > 100 µM (inactive) |  | 48.9 µM (inactive) | > 100 | 
CC(NC(=O)c1ccccc1)NC(=O)C(C)C(=O)Nc1ccccc1 (stereo unspecified) | > 100 µM (inactive) | 32.2 µM (inactive) | > 100 µM (inactive) |  | > 100 µM (inactive) | > 100 µM (inactive) | > 100 µM (inactive) | 75.2 µM (inactive) | > 100 µM (inactive) | > 100 µM (inactive) | 94.6 µM (inactive) | > 100 µM (inactive) | > 100 µM (inactive) | > 100 µM (inactive) | > 100 µM (inactive) | > 100 µM (inactive) | > 100 µM (inactive) | > 100 | 
C[N+]1(CC[N+]2(C)CCCC2c2cccnc2)CCCC1c1cccnc1 (stereo unspecified) | > 100 µM (inactive) | > 100 µM (inactive) | > 100 µM (inactive) | > 100 µM (inactive) | > 100 µM (inactive) | > 100 µM (inactive) | > 100 µM (inactive) | > 100 µM (inactive) | > 100 µM (inactive) | > 100 µM (inactive) | > 100 µM (inactive) | > 100 µM (inactive) |  | > 100 µM (inactive) | 33.2 µM (inactive) |  | > 100 µM (inactive) | > 100 | > 100 µM (inactive)
O=C1N(Cc2ccccc2)C2CSCC2N1Cc1ccccc1 (stereo unspecified) | 27.8 µM (inactive) | 18.6 µM (inactive) | 69.2 µM (inactive) | 1.85 µM (inactive) | 24.8 µM (inactive) | 17.1 µM (inactive) | 23.8 µM (inactive) | 29.6 µM (inactive) | 36.2 µM (inactive) | 15.9 µM (inactive) | 33.3 µM (inactive) | 29.6 µM (inactive) |  | 10.5 µM (inactive) | 20.2 µM (inactive) | 51.2 µM (inactive) | 49.2 µM (inactive) |  | 
CC1OC(OC2C(OC3CCC4(C)C(CCC5(C)C4CC=C4C6CC(C)(C)CCC6(C(=O)O)CCC45C)C3(C)CO)OCC(O)C2O)C(O)C(O)C1O (stereo unspecified) | 17.7 µM (inactive) | 14.1 µM (inactive) | 11.8 µM (inactive) | 29.6 µM (inactive) | 15.6 µM (inactive) | 16.7 µM (inactive) | 7.1 µM (inactive) | 20 µM (inactive) | 11.7 µM (inactive) | 19.8 µM (inactive) | 20.3 µM (inactive) | 13 µM (inactive) |  |  | 18.7 µM (inactive) | 4.68 µM (inactive) | 19 µM (inactive) | 20.9 | 14.2 µM (inactive)
O=C(COc1cc(=O)oc2ccccc12)c1ccccc1 | 25.2 µM (inactive) | 24.9 µM (inactive) | 29.6 µM (inactive) | 37.8 µM (inactive) | 26.9 µM (inactive) | 24.6 µM (inactive) | 37.9 µM (inactive) | > 100 µM (inactive) | 44.8 µM (inactive) | > 100 µM (inactive) | 33 µM (inactive) |  | > 100 µM (inactive) | 42 µM (inactive) |  | 71.6 µM (inactive) | 19.8 µM (inactive) | > 100 | 60.7 µM (inactive)
NN/C(=N\S(=O)(=O)c1cc2ccccc2o1)Nc1ccc(Cl)cc1 | > 100 µM (inactive) | 39.8 µM (inactive) | > 100 µM (inactive) | 48.8 µM (inactive) | 53 µM (inactive) | 57.7 µM (inactive) | > 100 µM (inactive) | 72.6 µM (inactive) | > 100 µM (inactive) | > 100 µM (inactive) | 51.1 µM (inactive) | > 100 µM (inactive) | > 100 µM (inactive) | > 100 µM (inactive) |  | 2.02 µM (inactive) | > 100 µM (inactive) | > 100 | > 100 µM (inactive)
O=C(NC1CCC(=O)N1C(=O)OCc1ccccc1)OCc1ccccc1 (stereo unspecified) | > 100 µM (inactive) | > 100 µM (inactive) |  | > 100 µM (inactive) | > 100 µM (inactive) | > 100 µM (inactive) | > 100 µM (inactive) | > 100 µM (inactive) | > 100 µM (inactive) | > 100 µM (inactive) | > 100 µM (inactive) | > 100 µM (inactive) |  | > 100 µM (inactive) | > 100 µM (inactive) |  | > 100 µM (inactive) | > 100 | 
COc1cc(/C=C2/C[C@H]3[C@@H]4CC=C5C[C@@H](O)CC[C@]5(C)[C@H]4CC[C@]3(C)NC2=O)cc(OC)c1OC | 22.1 µM (inactive) |  | 15.1 µM (inactive) | 23.1 µM (inactive) | 11.8 µM (inactive) | 15.2 µM (inactive) | 30.9 µM (inactive) | 23.6 µM (inactive) | > 73.8 µM (inactive) | 29.6 µM (inactive) | 18.9 µM (inactive) | 18.7 µM (inactive) | 0.405 µM (active) | 30.5 µM (inactive) | 20.7 µM (inactive) | 47.8 µM (inactive) | 18.9 µM (inactive) | 16.3 | 5.24 µM (inactive)
Cc1ccc(S(=O)(=O)N/N=C2/C3CC4CCC2C4C3)cc1 (stereo unspecified) | > 100 µM (inactive) | > 100 µM (inactive) | > 100 µM (inactive) | > 100 µM (inactive) | > 100 µM (inactive) | > 100 µM (inactive) | > 100 µM (inactive) | > 100 µM (inactive) | > 100 µM (inactive) | > 100 µM (inactive) | > 100 µM (inactive) | > 100 µM (inactive) |  | > 100 µM (inactive) | > 100 µM (inactive) |  | > 100 µM (inactive) | > 100 | > 100 µM (inactive)
COc1cc(/C=N/n2c(Cc3ccc(Cl)cc3)n[nH]c2=O)cc(OC)c1OC | > 100 µM (inactive) | 1.32 µM (inactive) | > 100 µM (inactive) | 37.6 µM (inactive) |  | > 100 µM (inactive) | 50 µM (inactive) |  | > 100 µM (inactive) | > 100 µM (inactive) | 26.5 µM (inactive) | > 100 µM (inactive) |  | > 100 µM (inactive) | > 100 µM (inactive) | > 100 µM (inactive) | > 100 µM (inactive) | > 100 | > 100 µM (inactive)
